Source: paper PMC10266688 (PLOS ONE, 2023)

Experiments:
[1] = Repeat IP dosing tolerability in Balb/c and C57BL/6 mice; type: in vivo; details: female Balb/c and C57BL/6 mice
[2] = tested on: GAPDH, RPN2 and USP14; assay: CETSA control proteins, SKOV3 cells; type: binding, human; details: SKOV3, 10 μM, 30 min
Description: Cells were incubated in a thermal cycler (Biorad IQ5 Cycler) over a gradient of temperatures for 4 min, followed by incubation at 25°C for 3 min, then snap-frozen in liquid nitrogen and subjected to three freeze–thaw cycles. Samples were briefly vortexed and centrifuged at 16,000 x g for 20 min at 4°C. Cleared cell lysates were resolved in SDS–PAGE followed by immunoblotting for RPN13, GAPDH, RPN2 and USP14.
Cellular Thermal Shift Assay (CETSA) assesses thermal stabilization of proteins upon ligand binding and is used extensively to detect drug interactions by implementing a thermal shift in the cellular context. The assay involves drug treatment of cells, heating to denature and precipitate proteins in a thermocycler with a specified gradient of temperatures, cell lysis by freeze/thaw cycles, and the separation of cell debris and aggregates from the soluble protein fraction by centrifugation. Whereas unbound proteins denature and precipitate at elevated temperatures, ligand-bound proteins remain in solution. The proportion of individual proteins remaining in solution can be detected by quantitative Western blotting. […]. There was no impact on other control proteins tested, including a house keeping protein (GAPDH) and proteasome subunits (RPN2 and USP14). […]
Resuspended cells were aliquoted into PCR strips. […]

[3] = tested on: peritoneal/ovarian tumor (shp53, AKT, c-Myc); assay: Spontaneous genetically-engineered mouse model (GEMM) of ovarian cancer; type: in vivo; details: C57BL/6, 20mg/kg IP every 3 days for 6 weeks
Description: To induce IP tumor formation in immunocompetent mice, oncogenes (shp53, AKT, c-Myc), luciferase and the Sleeping Beauty (SB) transposase (10 μg/plasmid) were diluted in 500 μL of PBS and injected IP into female C57BL/6 mice. The mice were anesthetized by intramuscular injection of ketamine. The plasmid-injected mice were electroporated (EP) by the BTX ECM 830 square wave EP generator (BTX) (5 pulses, 200 V for 100 ms/pulse, 100 ms intervals between each pulse), the caliper electrode (BTX) was held on the waist of mouse. The mice were followed by IVIS imaging weekly for tracking tumor growth. The mice were sacrificed when the bioluminescence signal reached 10^9 photons/sec/cm^2/sr, or had enlarged abdomens due to the production of ascites, or had health conditions and/or criteria under which early euthanasia was required by the protocol (see above). To track peritoneal tumor growth, bioluminescence imaging was performed by the IVIS spectrum2000 (PerkinElmer) as the plasmid expressing SB transposase also produces luciferase. Briefly, the mice were injected IP with D-luciferin (GoldBio). After 10 min, the mice were anesthetized with isoflurane, and imaged by the IVIS Spectrum under the auto exposure mode. Bioluminescence in the peritoneal region was quantified as total photon counts/sec/cm^2/sr using Living Image 3.0 Software (Perkin Elmer).
A-C) Female nude mice were inoculated IP with ES2-luc cells, a human ovarian cancer line expressing luciferase. […] The IP tumor tissue and electroporated normal muscle tissue, being spatially distinct, were identified with separate regions of interest (ROI) after simultaneous imaging with IVIS.
GEMM better mimic the spontaneous development of cancers in an immune competent host than transplantable tumor lines. Twenty female C57BL/6 mice were co-injected IP with sleeping beauty vector and plasmids expressing carrying shp53, AKT, c-Myc and firefly luciferase genes, followed by electroporation (EP) to deliver these plasmid DNA into the peritoneal cavity cells wherein they integrate randomly into their genome. […]

SMILES: N#Cc1ccc(/C=C2/C(=O)/C(=C/c3ccc(C#N)cc3)C23CCNCC3)cc1 [Up284]
- tolerability of 60 mg/kg IP every third day [1]: toxic
- MTD ([1]; mouse, in vivo, ip, read-out: MTD after 3 doses, IP delivery every third day): 40 mg/kg
- thermal stabilization of GAPDH, RPN2 and USP14 [2]: no impact
- ascites [3]: did not develop appreciable ascites
- GEMM tumor burden vs vehicle ([3]; p = 0.002): significantly reduced tumor burden
- survival vs vehicle ([3]; p = 0.06): trend for prolonged survival
